Data on 4 compounds can be found in ChEMBL document CHEMBL2429799, “Systematic replacement of amides by 1,4-disubstituted[1,2,3]triazoles in Leu-enkephalin and the impact on the delta opioid receptor activity” (Bioorg Med Chem Lett, 2013).

Active and inactive are the calls of the source. The rule behind the calls is not given here.

Test [1] has as its target Delta-type opioid receptor (Mus musculus, UniProt P32300). In words: Agonist activity at delta opioid receptor in mouse vas deferens assessed as inhibition of electrically-stimulated muscle contraction.
For test [2], the target named is Delta-type opioid receptor (Rattus norvegicus, UniProt P33533). In words: Displacement of [3H]-deltorphin 2 from delta opioid receptor in rat GH3 cells after 60 mins by scintillation counting analysis. Format: cell-based.
Chain of Delta-type opioid receptor (Rattus norvegicus, UniProt P33533) (P33533 whole entry): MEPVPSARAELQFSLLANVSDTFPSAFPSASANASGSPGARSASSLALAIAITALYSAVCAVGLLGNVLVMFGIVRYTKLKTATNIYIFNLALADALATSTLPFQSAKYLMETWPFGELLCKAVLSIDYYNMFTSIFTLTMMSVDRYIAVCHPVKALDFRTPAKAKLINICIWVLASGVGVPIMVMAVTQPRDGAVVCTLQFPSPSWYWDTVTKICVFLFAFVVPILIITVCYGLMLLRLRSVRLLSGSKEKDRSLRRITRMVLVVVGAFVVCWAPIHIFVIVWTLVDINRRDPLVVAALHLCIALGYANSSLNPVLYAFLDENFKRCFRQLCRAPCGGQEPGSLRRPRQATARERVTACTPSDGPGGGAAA
A short description of test [3]: Agonist activity at delta opioid receptor in mouse/rat DRGF11 hybrid cells expressing GFP assessed as induction of ERK1/2 phosphorylation at 10^-9 to 10^-5 M after 5 mins by Western blotting analysis.

Chain of Delta-type opioid receptor (Mus musculus, UniProt P32300) (P32300 whole entry): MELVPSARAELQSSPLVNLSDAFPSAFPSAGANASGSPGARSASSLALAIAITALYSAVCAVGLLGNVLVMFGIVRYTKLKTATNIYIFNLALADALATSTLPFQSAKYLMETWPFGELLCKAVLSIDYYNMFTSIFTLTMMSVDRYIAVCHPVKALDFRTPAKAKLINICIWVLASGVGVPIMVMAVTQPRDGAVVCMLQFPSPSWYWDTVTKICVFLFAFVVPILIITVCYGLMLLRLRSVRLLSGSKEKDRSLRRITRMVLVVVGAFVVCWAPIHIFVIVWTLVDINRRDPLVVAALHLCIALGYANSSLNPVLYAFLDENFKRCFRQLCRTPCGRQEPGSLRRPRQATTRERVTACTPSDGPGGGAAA

As for `CC(C)C[C@H](NC(=O)[C@H](Cc1ccccc1)n1cc(CNC(=O)CNC(=O)[C@@H](N)Cc2ccc(O)cc2)nn1)C(=O)O`, the EC50 in test [1] is above 1500 nM. The Ki in test [2] stood at 460 nM.
For `CC(C)C[C@@H](C(=O)O)n1cc([C@H](Cc2ccccc2)NC(=O)CNC(=O)CNC(=O)[C@@H](N)Cc2ccc(O)cc2)nn1`, the outcome in test [3] was Active. In addition, the EC50 in test [1] is 830 nM. In test [2], this compound returned a Ki of 89 nM.
As for `CC(C)C[C@H](NC(=O)[C@H](Cc1ccccc1)NC(=O)CNC(=O)Cn1cc([C@@H](N)Cc2ccc(O)cc2)nn1)C(=O)O`, the EC50 in test [1] is above 1500 nM. For the same compound, the Ki in test [2] was above 1000 nM.
Regarding `CC(C)C[C@H](NC(=O)[C@H](Cc1ccccc1)NC(=O)Cn1cc(CNC(=O)[C@@H](N)Cc2ccc(O)cc2)nn1)C(=O)O`, the EC50 in test [1] is above 1500 nM. In test [2], this compound had a Ki above 1000 nM.
